Source: patent US11937624B2, “Food composition” (INNOVAFOOD AB, priority 2011, dated 2024)
Marks after values point to notes of the source that are not given here.

Tests used:
blood glucose = test: Postprandial blood glucose response to white wheat bread test meal with test drink (Example 1); assay type: in vivo, human
Experimental: (§1) Four different beverages were tested by the inventors; one reference, one with only the amino acid mixture, one with only CrPic, and one combining the amino acid mixture with CrPic. The amino acids used were L-leucine, L-isoleucine, L-lysine, L-valine and L-threonine.
(§2) The reference (“Ref”) drink was made out of tap water and aroma, poured into 330 mL bottles and carbonated with a Table Top Carbonator CF-121 (Omve) set at 10 g CO2/L.
(§3) The beverage with CrPic (“CrPic”) was prepared by dissolving one thawed pellet of concentrated CrPic solution (4.0 grams) in 308.0 grams of carbonated tap water and thereafter 0.19 grams of aroma was added. Additional CO2 was added just before serving with a Soda Streamer to mimic the amount in the Ref drink.
(§4) The beverage with amino acids (“5AA”) was prepared by dissolving 6.9 grams of the amino acid mixture in 305.1 grams of carbonated tap water and thereafter 0.19 grams of aroma was added. Additional CO2 was added just before serving with a Soda Streamer to mimic the amount in the Ref drink. See Table 7 for composition of amino acid mixture.
(§5) The beverage with amino acids and CrPic (“5AA+CrPic”) was prepared by dissolving 6.9 grams of the amino acid mixture and one thawed pellet of concentrated CrPic solution (4 grams) in 301.1 grams of carbonated tap water and thereafter 0.19 grams of aroma was added. Additional CO2 was added just before serving with a Soda Streamer to mimic the amount in the Ref drink.
(§6) The test meals consisted of sandwiches made of white wheat bread (Dollarfranska, Lockarps, Lockarp, Sweden), contributing with 50 grams of available starch, and the test drinks. The white wheat bread was spread with 10 grams of butter (Bregott, Arla, Stockholm, Sweden) and 24 grams of orange marmalade (kindly provided by Önos, Procordia Food, Eslöv). The sandwiches provided 9 grams of protein and an additional amount of carbohydrates from the marmalade and butter of 14 grams. A schematic overview of the composition of the different test meals is found in Table 2.
(§7) Nineteen healthy subjects, 11 men and 8 women, aged 38-60 (51±1 years; mean±SEM) and with body mass indexes of 24-30 (27.3±0.3 kg/m2; mean±SEM) were included in the study. All subjects had normal fasting blood glucose levels (5.6±0.1 mmol/L, mean±SEM).
(§8) The test subjects were instructed to eat a dinner of own choice (but with a low content of fiber) as well as an evening meal consisting of white wheat bread and a beverage, and to eat the same meals the evening before every test occasion. After the white wheat bread meal at around 9-10 p.m., the subjects were thereafter to restrain from ingesting anything but maximum a half glass of water on the morning of the test occasion.
(§9) Upon arrival at the laboratory at 07:45 on the test day, the subjects were sat to rest before a fasting capillary blood sample was drawn. Immediately thereafter, the test meal was served and a digital timer was started. Together with the drinks, a […] sandwich meal was served, containing 64 g available carbohydrates, 9.1 g protein and 11.7 g fat. The subjects were instructed to finish the meal in 10-15 minutes and to alternate between eating and drinking. All meals were well tolerated, and the subjects had no problems finishing eating within the 10-15 min period.
(§10) Capillary blood samples were taken at fasting and 15, 30, 45, 60, 90, 120 and 180 min after the ingestion of the meal for the analysis of blood glucose and serum insulin.
(§11) Blood glucose was immediately analyzed in serum with the use of a B-glucose analyzer (Hemocue AB, Ängelholm, Sweden). Serum tubes were centrifuged for 5 min (3000 rpm) and serum was frozen at −18° C. for the measurement of insulin. The serum insulin measurement was performed on an integrated immunoassay analyzer (CODA open Microplate System, Bio-Rad Laboratories, Hercules, CA) by using an enzyme immunoassay kit (Mercodia Insulin ELISA, Mercodia AB, Uppsala, Sweden). […]

serum insulin = test: Postprandial serum insulin response to white wheat bread test meal with test drink (Example 1); assay type: in vivo, human
Experimental: as §1, §2, §3, §4, §5, §6, §7, §8, §9, §10, §11

[1] = Table 5 comparison, 0-120 min, mean ± SEM, n=19 (5AA n=18)
[2] = Table 5 comparison, vs Ref meal
[3] = healthy subjects, carbonated water drink with sandwich meal, 0-60 min, mean ± SEM, n=19 (5AA n=18)
[4] = healthy subjects, carbonated water drink with sandwich meal, 0-120 min, mean ± SEM, n=19 (5AA n=18)
[5] = healthy subjects, carbonated water drink with sandwich meal, 0-180 min, mean ± SEM, n=19 (5AA n=18)

Chromium tripicolinate [CrPic]
Change in glucose iAUC 0-60 min as a percentage of the reference meal (blood glucose; 0-60 min, vs Ref meal): −13%
Change in glucose iAUC 0-120 min as a percentage of the reference meal (blood glucose; 0-120 min, vs Ref meal): −6%
Change in glucose iAUC 0-180 min as a percentage of the reference meal (blood glucose; 0-180 min, vs Ref meal): −4%
Glucose iAUC 0-120 min (blood glucose; [1]): 189 ± 20.7 mmol·min/L
Change (%) of glucose iAUC 0-120 min (blood glucose; [2]): −6%
Blood glucose iAUC 0-60 min (blood glucose; [3]): 100.2 ± 9.3^ac mmol min/L
Blood glucose iAUC 0-120 min (blood glucose; [4]): 189.1 ± 20.7^ab mmol min/L
Blood glucose iAUC 0-180 min (blood glucose; [5]): 222.3 ± 25.6 mmol·min/L
Change in insulin iAUC 0-60 min as a percentage of the reference meal (serum insulin; 0-60 min, vs Ref meal): −12%
Change in insulin iAUC 0-120 min as a percentage of the reference meal (serum insulin; 0-120 min, vs Ref meal): −10%
Change in insulin iAUC 0-180 min as a percentage of the reference meal (serum insulin; 0-180 min, vs Ref meal): −11%
Insulin iAUC 0-120 min (serum insulin; [1]): 15.4 ± 1.9 nmol·min/L
Change (%) of insulin iAUC 0-120 min (serum insulin; [2]): −10%
Insulin iAUC 0-60 min (serum insulin; [3]): 7.5 ± 0.9^a nmol · min/L
Insulin iAUC 0-120 min (serum insulin; [4]): 15.4 ± 1.9^a nmol · min/L
Insulin iAUC 0-180 min (serum insulin; [5]): 18.5 ± 2.6^b nmol · min/L
